Experimental data published in patent US9303045B2, “5-HT3 receptor antagonists” (Takeda Pharmaceutical Company Limited, priority 2013, dated 2016).
pIC50: −log10 of the molar value. Where a name gives a salt, the structure may show the parent alone.

target: 5HT3a receptor expressed in HEK-293T cells (Homo sapiens (Human), UniProt P46098); assay: Inhibition of Ca flux activity of 5HT3 in vitro assay; type: cell-based; conditions: calcium flux, 5HT 216 nM, approximate values
Procedure: Inhibition of Ca Flux Activity of 5HT3 In Vitro Assay
The 5HT3 antagonist activity of the compounds of the invention was determined by measuring the ability of the compounds to inhibit the calcium flux activity of […] receptor expressed in HEK-293T cells. HEK-293T cells were transfected with the 5HT3a expression construct using Xtreme Gene 9 (Roche) in 150 mm tissue culture treated plates and incubated for 24 hours at 37° C. Cells were then split and plated at a density of 60K cells/well in poly-lysine coated, black 96-well plates with clear bottoms (BD BioSciences) and incubated overnight at 37° C. Growth media was removed and cells loaded with 200 uL calcium indicator dye in HBSS containing 20 mM HEPES (Calcium 5 Assay kit, Molecular Devices) and incubated at 37° C. for 1 hour. While cells were incubating, the 10× antagonist and agonist/antagonist addition plates were made. For 10× antagonist plate: half log serial dilutions (final concentrations range from 10^−7 through 10^−10 with the bottom well a negative, no ligand control) were made from test compounds in DMSO at a 1000× concentration and then diluted to 10× in HBSS/20 mM HEPES. For addition plate: 5HT was diluted to 100× in HBSS/20 mM HEPES (final concentration in the assay—216 nM) and 15 uL was added to each well of the addition plate, 15 uL of 10× compound was also added to the addition plate, and finally 120 uL of HBSS/20 mM HEPES (for a total of 150 uL). Cells were then removed from the incubator and equilibrated to room temperature for 10 minutes, then 22.5 uL of 10× test compounds were added in triplicate to the plates and incubated at room temperature for 10 minutes (Tropisetron was used as a positive control in every assay). Test plate and addition plate were loaded into the FlexStation III (Molecular Devices), and using the fluidics, 22.5 uL compound additions were made (at t=˜17 seconds), and fluorescence was measured for 90 seconds, reading every 2.2 seconds. Data sets were analyzed as max minus min using Software Max Pro (Molecular Devices). IC50 curves were generated using non-linear regression in GraphPad Prism.

Chain of 5HT3a receptor expressed in HEK-293T cells (P46098 24-478): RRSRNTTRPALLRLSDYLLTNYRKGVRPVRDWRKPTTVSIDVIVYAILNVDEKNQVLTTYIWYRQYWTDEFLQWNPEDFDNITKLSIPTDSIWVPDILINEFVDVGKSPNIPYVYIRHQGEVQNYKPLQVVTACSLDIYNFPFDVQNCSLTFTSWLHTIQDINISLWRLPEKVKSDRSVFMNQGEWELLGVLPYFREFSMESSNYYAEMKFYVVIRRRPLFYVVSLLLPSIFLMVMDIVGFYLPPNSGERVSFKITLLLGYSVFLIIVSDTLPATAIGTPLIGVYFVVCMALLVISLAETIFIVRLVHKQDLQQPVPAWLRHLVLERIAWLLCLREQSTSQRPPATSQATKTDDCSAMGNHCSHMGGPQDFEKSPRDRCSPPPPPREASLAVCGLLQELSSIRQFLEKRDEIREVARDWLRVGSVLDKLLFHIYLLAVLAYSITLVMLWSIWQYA

Row | Molecule | pIC50
1 | O=C(NC1CC2COCC(C1)N2C(F)(F)F)c1cn(CC(F)F)c2ncccc12 [Example 104, 1-(2,2-difluoroethyl)-N-((1R,5S,7S)-9-(trifluoromethyl)-3-oxa-9-azabicyclo[3.3.1]nonan-7-yl)-1H-pyrrolo[2,3-b]pyridine-3-carboxamide, 2,2,2-trifluoroacetate] | < 6.00
2 | O=C(OC1C[C@H]2COC[C@@H](C1)N2)c1cn(-c2nccs2)c2ccccc12 (stereo partly drawn) [Example 128, (1R,5S,7S)-3-oxa-9-azabicyclo[3.3.1]nonan-7-yl 1-(thiazol-2-yl)-1H-indole-3-carboxamide, 2,2,2-trifluoroacetate] | 8.67
3 | N-((1R,5S,7s)-9-methyl-3-oxa-9-azabicyclo[3.3.1]nonan-7-yl)-1-phenyl-1H-indole-3-carboxamide, 2,2,2-trifluoroacetic acid salt [Example 26] | 9.27
4 | (1R,5S,7S)-9-methyl-3-oxa-9-azabicyclo[3.3.1]nonan-7-yl 1-(isothiazol-3-yl)-1H-indole-3-carboxylate, 2,2,2-trifluoroacetic acid salt [Example 34] | 9.13
5 | CN1C2COCC1CC(NC(=O)c1cn(-c3cscn3)c3ncc(F)cc13)C2 [Example 163, 5-fluoro-N-((1R,5S,7s)-9-methyl-3-oxa-9-azabicyclo[3.3.1]nonan-7-yl)-1-(thiazol-4-yl)-1H-pyrrolo[2,3-b]pyridine-3-carboxamide, 2,2,2-trifluoroacetic acid salt] | 8.74
6 | CN1C2COCC1CC(NC(=O)c1cn(CCF)c3ccccc13)C2 [Example 79, 1-(2-fluoroethyl)-N-((1R,5S,7S)-9-methyl-3-oxa-9-azabicyclo-[3.3.1]nonan-7-yl)-1H-indole-3-carboxamide, 2,2,2-trifluoroacetate] | 9.39
7 | O=C(NC1C[C@H]2COC[C@@H](C1)N2)c1cn(CC(F)F)c2ncc(F)cc12 (stereo partly drawn) [Example 39, N-((1R,5S,7S)-3-oxa-9-azabicyclo[3.3.1]nonan-7-yl)-1-(2,2-difluoroethyl)-5-fluoro-1H-pyrrolo[2,3-b]pyridine-3-carboxamide, 2,2,2-trifluoroacetate] | 7.62
8 | CN1C2COCC1CC(NC(=O)c1cn(CC#N)c3ccccc13)C2 [Example 159, 1-(cyanomethyl)-N-((1R,5S,7s)-9-methyl-3-oxa-9-azabicyclo[3.3.1]nonan-7-yl)-1H-indole-3-carboxamide, 2,2,2-trifluoroacetic acid salt] | 9.53
9 | CN1C2COCC1CC(NC(=O)c1cn(-c3ccsn3)c3ccccc13)C2 [Example 153, 1-(isothiazol-3-yl)-N-((1R,5S,7s)-9-methyl-3-oxa-9-azabicyclo[3.3.1]nonan-7-yl)-1H-indole-3-carboxamide, 2,2,2-trifluoroacetic acid salt] | 9.06
10 | O=C(OC1CC2COCC(C1)N2)c1cn(CC(F)(F)F)c2ccc(F)cc12 [Example 59, (1R,5S,7S)-3-oxa-9-azabicyclo[3.3.1]nonan-7-yl 5-fluoro-1-(2,2,2-trifluoroethyl)-1H-indole-3-carboxylate, 2,2,2-trifluoroacetate] | 8.63
11 | CN1[C@@H]2COC[C@H]1CC(NC(=O)c1cn(-c3ncccn3)c3ccccc13)C2 (stereo partly drawn) [Example 107, N-((1R,5S,7S)-9-methyl-3-oxa-9-azabicyclo[3.3.1]nonan-7-yl)-1-(pyrimidin-2-yl)-1H-indole-3-carboxamide, 2,2,2-trifluoroacetate] | 8.96
12 | O=C(OC1C[C@H]2COC[C@@H](C1)N2)c1cn(CC(F)F)c2ccc(F)cc12 (stereo partly drawn) [Example 31, (1R,5S,7S)-3-oxa-9-azabicyclo[3.3.1]nonan-7-yl 1-(2,2-difluoroethyl)-5-fluoro-1H-indole-3-carboxylate, 2,2,2-trifluoroacetate] | 8.89
13 | CN1[C@@H]2CC[C@H]1CC(OC(=O)c1c3n(c4ccccc14)CCCCO3)C2 (stereo partly drawn) [Example 84, (1R,3R,5S)-8-methyl-8-azabicyclo[3.2.1]octan-3-yl 2,3,4,5-tetrahydro-[1,3]oxazepino[3,2-a]indole-11-carboxylate, 2,2,2-trifluoroacetate] | 8.79
14 | (1R,3R,5S)-8-methyl-8-azabicyclo[3.2.1]octan-3-yl 1-(2,2-difluoroethyl)-1H-pyrrolo[2,3-b]pyridine-3-carboxylate 2,2,2-trifluoroacetate [Example 1] | 8.67
15 | CN1[C@@H]2COC[C@H]1CC(NC(=O)c1cn(-c3ncccn3)c3ccccc13)C2 (stereo partly drawn) [Example 122, N-((1R,5S,7S)-9-methyl-d3-3-oxa-9-azabicyclo[3.3.1]nonan-7-yl)-1-(pyrimidin-2-yl)-1H-indole-3-carboxamide, 2,2,2-trifluoroacetate] | 9.00
16 | CN(C(=O)c1cn(-c2cnsc2)c2ccccc12)C1C[C@H]2COC[C@@H](C1)N2C (stereo partly drawn) [Example 186, 1-(isothiazol-4-yl)-N-methyl-N-((1R,5S,7S)-9-methyl-3-oxa-9-azabicyclo[3.3.1]nonan-7-yl)-1H-indole-3-carboxamide] | 8.82
17 | CN1[C@@H]2CCC[C@H]1CC(OC(=O)c1cn(CC(F)(F)F)c3ncccc13)C2 (stereo partly drawn) [Example 103, (1R,3R,5S)-9-methyl-9-azabicyclo[3.3.1]nonan-3-yl 1-(2,2,2-trifluoroethyl)-1H-pyrrolo[2,3-b]pyridine-3-carboxylate, 2,2,2-trifluoroacetate] | 8.09
18 | CN1[C@@H]2COC[C@H]1CC(NC(=O)c1cn(-c3cnccn3)c3ccccc13)C2 (stereo partly drawn) [Example 130, N-((1R,5S,7S)-9-methyl-d3-3-oxa-9-azabicyclo[3.3.1]nonan-7-yl)-1-(pyrazin-2-yl)-1H-indole-3-carboxamide] | 9.26
19 | CN1C2COCC1CC(NC(=O)c1cn(-c3cncs3)c3ncc(F)cc13)C2 [Example 164, 5-fluoro-N-((1R,5S,7s)-9-methyl-3-oxa-9-azabicyclo[3.3.1]nonan-7-yl)-1-(thiazol-5-yl)-1H-pyrrolo[2,3-b]pyridine-3-carboxamide, 2,2,2-trifluoroacetic acid salt] | 8.93
20 | O=C(NC1C[C@H]2COC[C@@H](C1)N2)c1cn(CC(F)(F)F)c2ncccc12 (stereo partly drawn) [Example 38, N-((1R,5S,7S)-3-oxa-9-azabicyclo[3.3.1]nonan-7-yl)-1-(2,2,2-trifluoroethyl)-1H-pyrrolo[2,3-b]pyridine-3-carboxamide, 2,2,2-trifluoroacetate] | 8.74
21 | CN1[C@@H]2CC[C@H]1CC(OC(=O)c1c(Cl)n(CC(F)(F)F)c3ccccc13)C2 (stereo partly drawn) [Example 44, (1R,3R,5S)-8-methyl-8-azabicyclo[3.2.1]octan-3-yl 2-chloro-1-(2,2,2-trifluoroethyl)-1H-indole-3-carboxylate, 2,2,2-trifluoroacetate] | 8.73
22 | CN1[C@@H]2CC[C@H]1CC(OC(=O)c1cn(CC(F)(F)F)c3ccccc13)C2 (stereo partly drawn) [Example 95, (1R,3R,5S)-8-methyl-8-azabicyclo[3.2.1]octan-3-yl 1-(2,2,2-trifluoroethyl)-1H-indole-3-carboxylate, 2,2,2-trifluoroacetate] | 9.05
23 | (1R,3R,5S)-8-methyl-8-azabicyclo[3.2.1]octan-3-yl 2-chloro-1-(methylsulfonyl)-1H-indole-3-carboxylate 2,2,2-trifluoroacetate [Example 6] | 8.63
24 | (1R,5S,7S)-9-methyl-3-oxa-9-azabicyclo[3.3.1]nonan-7-yl 1-(5-fluoropyrazin-2-yl)-1H-indole-3-carboxylate, 2,2,2-trifluoroacetic acid salt [Example 33] | 7.84
